Data on five compounds can be found in ChEMBL document CHEMBL5724914, “Linking interpersonal differences in gut microbiota composition and drug biotransformation activity” (2024).

For data set [1] the following is noted: human gut metagenome, 24 h, 2 µM.
For data set [2] the following is noted: human gut metagenome, 24 h, 2 µM. The source holds these as a separate data set.
For data set [3] the following is noted: human gut metagenome, 24 h, 2 µM. The source holds these as a separate data set.
Data set [4] is described as follows: The drug is tested on WLS-039 corresponding to human gut metagenome with ENA study accession number: PRJEB37062 and ENA sample accession number: ERS12561746 for biotransformation under anaerobic condition. The drug concentrations were measured over 9 timepoints collected between 0 and 24 hours of incubation by liquid-chromatography-coupled mass spectrometry (LC–MS). The following applies: 2 µM.

For data set [5] the following is noted: human gut metagenome, 24 h, 2 µM. The source holds these as a separate data set.
A short description of data set [6]: The drug is tested on WLS-010 corresponding to human gut metagenome with ENA study accession number: PRJEB37062 and ENA sample accession number: ERS12561743 for biotransformation under anaerobic condition. The drug concentrations were measured over 9 timepoints collected between 0 and 24 hours of incubation by liquid-chromatography-coupled mass spectrometry (LC–MS). The following applies: 2 µM.

Data set [7] is described as follows: The drug is tested on WLS-350 corresponding to human gut metagenome with ENA study accession number: PRJEB37062 and ENA sample accession number: ERS12561789 for biotransformation under anaerobic condition. The drug concentrations were measured over 9 timepoints collected between 0 and 24 hours of incubation by liquid-chromatography-coupled mass spectrometry (LC–MS). To be noted: 2 µM.

For data set [8] the following is noted: human gut metagenome, 24 h, 2 µM. The source holds these as a separate data set.
For data set [9] the following is noted: human gut metagenome, 24 h, 2 µM. This is another data set of the same source.
Data set [10] can be described thus: The drug is tested on WLS-007 corresponding to human gut metagenome with ENA study accession number: PRJEB37062 and ENA sample accession number: ERS12561742 for biotransformation under anaerobic condition. The drug concentrations were measured over 9 timepoints collected between 0 and 24 hours of incubation by liquid-chromatography-coupled mass spectrometry (LC–MS). The following applies: 2 µM.

Data set [11] in a line: The drug is tested on Z-006 corresponding to mouse gut metagenome with ENA study accession number: PRJEB37062 and ENA sample accession number: ERS12561806 for biotransformation under anaerobic condition. The drug concentrations were measured over 9 timepoints collected between 0 and 24 hours of incubation by liquid-chromatography-coupled mass spectrometry (LC–MS). The following applies: 2 µM.

A short description of data set [12]: The drug is tested on WLS-006 corresponding to human gut metagenome with ENA study accession number: PRJEB37062 and ENA sample accession number: ERS12561741 for biotransformation under anaerobic condition. The drug concentrations were measured over 9 timepoints collected between 0 and 24 hours of incubation by liquid-chromatography-coupled mass spectrometry (LC–MS). The following applies: 2 µM.

Data set [13] can be described thus: The drug is tested on Z-011 corresponding to mouse gut metagenome with ENA study accession number: PRJEB37062 and ENA sample accession number: ERS12561811 for biotransformation under anaerobic condition. The drug concentrations were measured over 9 timepoints collected between 0 and 24 hours of incubation by liquid-chromatography-coupled mass spectrometry (LC–MS). The following applies: 2 µM.

The nature of data set [14]: The drug is tested on Z-013 corresponding to rabbit gut metagenome with ENA study accession number: PRJEB37062 and ENA sample accession number: ERS12561813 for biotransformation under anaerobic condition. The drug concentrations were measured over 9 timepoints collected between 0 and 24 hours of incubation by liquid-chromatography-coupled mass spectrometry (LC–MS). The following applies: 2 µM.

For data set [15] the following is noted: human gut metagenome, 24 h, 2 µM. The source holds these as a separate data set.
For data set [16] the following is noted: human gut metagenome, 24 h, 2 µM. This is another data set of the same source.
The nature of data set [17]: The drug is tested on WLS-052 corresponding to human gut metagenome with ENA study accession number: PRJEB37062 and ENA sample accession number: ERS12561747 for biotransformation under anaerobic condition. The drug concentrations were measured over 9 timepoints collected between 0 and 24 hours of incubation by liquid-chromatography-coupled mass spectrometry (LC–MS). The following applies: 2 µM.

The nature of data set [18]: The drug is tested on WLS-082 corresponding to human gut metagenome with ENA study accession number: PRJEB37062 and ENA sample accession number: ERS12561751 for biotransformation under anaerobic condition. The drug concentrations were measured over 9 timepoints collected between 0 and 24 hours of incubation by liquid-chromatography-coupled mass spectrometry (LC–MS). To be noted: 2 µM.

Data set [19] can be described thus: The drug is tested on WLS-370 corresponding to human gut metagenome with ENA study accession number: PRJEB37062 and ENA sample accession number: ERS12561793 for biotransformation under anaerobic condition. The drug concentrations were measured over 9 timepoints collected between 0 and 24 hours of incubation by liquid-chromatography-coupled mass spectrometry (LC–MS). To be noted: 2 µM.

The conditions of data set [20]: human gut metagenome, 24 h, 2 µM. This is another data set of the same source.
Note: call rule not given here.

As for `CCCC(C)(COC(N)=O)COC(=O)NC(C)C` (stereo not given) [CARISOPRODOL], the “Bacterial Biotransformation” value in [1] is listed as “Compound NOT metabolized”; in [2] it was “Compound NOT metabolized”; in [3], “Compound NOT metabolized”; in data set [4] it was “Compound metabolized”; in data set [5], “Compound metabolized”; in data set [6], “Compound metabolized”. Besides, the “Bacterial Biotransformation” value in data set [7], in data set [8], in [9], in data set [10], in data set [11] and in data set [12] was “Compound metabolized” in each case. In addition, the “Bacterial Biotransformation” value in [13] was “Compound metabolized”; in data set [14], “Compound NOT metabolized”; in [15] it was “Compound metabolized”; in [16], “Compound metabolized”; in data set [17], “Compound metabolized”; in data set [18], “Compound metabolized”. The results for the “Bacterial Biotransformation” value in data set [19] and in data set [20] were “Compound metabolized” and “Compound NOT metabolized”, respectively.

`COc1cc2nc(N3CCN(C(=O)C4COc5ccccc5O4)CC3)nc(N)c2cc1OC.CS(=O)(=O)O` (stereo not given) [DOXAZOSIN MESYLATE]: the “Bacterial Biotransformation” value in data set [1] was “Compound NOT metabolized”; in data set [2], “Compound NOT metabolized”; in data set [3], “Compound metabolized”; in data set [4] it was “Compound NOT metabolized”; in data set [5], “Compound metabolized”; in [6], “Compound metabolized”. For the same compound, the “Bacterial Biotransformation” value in data set [7] is “Compound metabolized”; in data set [8] it was “Compound metabolized”; in data set [9] it was “Compound metabolized”; in [10], “Compound metabolized”; in [11] it was “Compound NOT metabolized”; in data set [12], “Compound metabolized”. In addition, the “Bacterial Biotransformation” value was “Compound NOT metabolized” in data set [13]; “Compound metabolized” in [14]; “Compound metabolized” in data set [15]; “Compound NOT metabolized” in data set [16]; “Compound NOT metabolized” in data set [17]; “Compound metabolized” in data set [18]. In addition, the “Bacterial Biotransformation” value is on record as “Compound metabolized” in data set [19] and “Compound NOT metabolized” in data set [20].

Regarding `CC(C)(C)N.CCC[C@H](N[C@@H](C)C(=O)N1[C@H](C(=O)O)C[C@@H]2CCCC[C@@H]21)C(=O)OCC` [PERINDOPRIL ERBUMINE], the “Bacterial Biotransformation” value in [1] is “Compound metabolized”; in data set [2], “Compound NOT metabolized”; in data set [3], “Compound metabolized”; in data set [4] it was “Compound NOT metabolized”; in data set [5] it was “Compound metabolized”; in data set [6], “Compound metabolized”. Moreover, the “Bacterial Biotransformation” value in [7] is “Compound metabolized”; in data set [8], “Compound metabolized”; in data set [9] it was “Compound metabolized”; in data set [10], “Compound metabolized”; in data set [11], “Compound NOT metabolized”; in data set [12], “Compound metabolized”. In addition, the “Bacterial Biotransformation” value in data set [13] is listed as “Compound NOT metabolized”; in data set [14], “Compound NOT metabolized”; in data set [15] it was “Compound NOT metabolized”; in data set [16], “Compound metabolized”; in [17], “Compound NOT metabolized”; in [18], “Compound metabolized”. In addition, the “Bacterial Biotransformation” value in [19] and in data set [20] was “Compound metabolized” throughout.

Consider `CCN(C(C)=O)c1cccc(-c2ccnc3c(C#N)cnn23)c1` [ZALEPLON], for which the “Bacterial Biotransformation” value in data set [1] is given as “Compound NOT metabolized”; in [2], “Compound metabolized”; in [3], “Compound metabolized”; in data set [4], “Compound metabolized”; in [5] it was “Compound metabolized”; in data set [6], “Compound metabolized”. Further, the “Bacterial Biotransformation” value is listed as “Compound metabolized” in data set [7]; “Compound metabolized” in data set [8]; “Compound metabolized” in data set [9]; “Compound metabolized” in [10]; “Compound NOT metabolized” in [11]; “Compound metabolized” in data set [12]. In addition, the “Bacterial Biotransformation” value in [13] was “Compound NOT metabolized”; in data set [14], “Compound NOT metabolized”; in [15], “Compound metabolized”; in data set [16], “Compound metabolized”; in data set [17], “Compound metabolized”; in data set [18], “Compound metabolized”. The entries for the “Bacterial Biotransformation” value in data set [19] and in data set [20] were “Compound metabolized” and “Compound NOT metabolized”, respectively.

For `CC(C)[C@H]1CC[C@H](C(=O)N[C@H](Cc2ccccc2)C(=O)O)CC1` [NATEGLINIDE], the “Bacterial Biotransformation” value is given as “Compound metabolized” in data set [1]; “Compound metabolized” in data set [2]; “Compound metabolized” in data set [3]; “Compound NOT metabolized” in [4]; “Compound metabolized” in data set [5]; “Compound metabolized” in data set [6]. Further, the “Bacterial Biotransformation” value in [7] is “Compound metabolized”; in data set [8] it was “Compound metabolized”; in data set [9] it was “Compound metabolized”; in [10], “Compound metabolized”; in [11], “Compound NOT metabolized”; in data set [12], “Compound metabolized”. The “Bacterial Biotransformation” value in data set [13], in data set [14], in data set [15], in data set [16], in data set [17] and in data set [18] was “Compound metabolized” throughout. The results for the “Bacterial Biotransformation” value in data set [19] and in data set [20] were “Compound metabolized” and “Compound NOT metabolized”, respectively.
